The source of these data is patent publication US9839690B2, “Singlet oxygen-labile linkers and methods of production and use thereof” (The Board of Regents of the University of Oklahoma, priority 2012, dated 2017).

The nature of data set [1]: Photooxidation of 1,2-diheteroatom-substituted olefins with CMP-OMe, 690 nm diode laser (Example 2). Format: physicochemical. The procedure:
In a NMR tube, an olefin (0.0048 mmol) was dissolved in CDCl3 (0.5 mL). The photosensitizer [5-(4-methoxyphenyl)-10,15,20-triphenyl-21-23-dithiaporphyrin, CMP-OMe, 3 mg, 0.0048 mmol] was added to this solution. Then, the reaction mixture was irradiated for 15 min using a diode laser (690 nm, 200 mW/cm^2). The reaction of olefins with singlet oxygen was monitored by the decrease of olefinic peaks in ^1H-NMR spectra. The formation of the photooxidation products were also determined by appearance of the formate (or thioformate) peaks in ^1H-NMR spectra.
To examine the oxidation rate of these electron-rich alkenes with singlet oxygen (Scheme 4), compounds 6, 8, and 10 were irradiated in the presence of 5-(4-methoxyphenyl)-10,15,20-triphenyl-21,23-dithiaporphyrin as a photosensitizer.^53 All experiments were performed following the standard procedure previously set with a slight modification by using a 690 nm diode laser source (200 mW/cm^2).^35 In the experiments, the amount of sensitizer used was not catalytic. Here, the ratio of olefin and photosensitizer used was 1:1 to mimic the situation of prodrug where the olefinic linker could be used for connecting one drug molecule to one photosensitizer molecule.^7,35 The reaction solutions were irradiated for 15 min and monitored every 5 min using olefinic peaks in ^1H-NMR each time to monitor the progress of the reactions. Upon the oxidation by singlet oxygen, the olefinic peaks decreased.

Data set [2] in a line: Photooxygenation of model compounds 2-16 with dithiaporphyrin photosensitizer, 690 nm diode laser (Example 3). Format: physicochemical. The procedure: To evaluate the rate of oxidation by singlet oxygen, the model compounds 2-7 were irradiated by a diode laser (690 nm, 200 mW/cm2, 25 min) in the presence of the photosensitizer 5-(4-methoxyphenyl)-10,15,20-[…]-21,23-dithiaporphyrin (FIG. 11 and Table 5). The reaction of olefins with singlet oxygen was monitored by the decrease of olefinic proton peaks in the ^1H-NMR spectra. (Z)-1,2-Bis(phenylthio)ethylene was used as positive control. […] Oxidation of only the nitrogen analogues is probably due to electron donation from the nitrogen to the carbonyl group making the olefinic bond electron rich for attack by singlet oxygen.
In a NMR tube, an olefin (0.0048 mmol) was dissolved in CDCl3 (0.5 mL). The photosensitizer compound (32), 3 mg, 0.0048 mmol] was added to this solution. […] The reaction of olefins with singlet oxygen was monitored by the decrease of olefinic peaks in ^1H-NMR spectra. In the case of compound 14, 15 and 16 no photosensitizer was added.

The nature of data set [3]: Oxidation of aminoacrylate linker model compound with ROS quenchers. It counts as physicochemical. The settings on record: model compound 9 mM, CMP-OMe 9 mM, quencher 9 mM, 690 nm, 100 mW/cm^2. How it is done:
To determine the effect of specific ROS quenchers on the oxidation of the aminoacrylate linker, the rate of oxidation of aminoacrylate linker was determined by ^1H-NMR using the vinyl proton of the aminoacrylate linker (FIG. 20). A solution of (E)-N-phenyl-3-(piperidin-1-yl)acrylamide (9 mM), a photosensitizer (CMP-OMe, 9 mM), a ROS quencher (0 or 9 mM) was in a CDCl3 solvent in a NMR tube was exposed to the irradiation (690 nm diode laser, 100 mW/cm^2) and ^1H-NMR was taken every 5 min. The ROS quencher was either a singlet oxygen quencher (DABCO or β-Carotene) or a superoxide quencher (1,4-Benzoquinone) and the photosensitizer was CMP-OMe (5-(4-methoxyphenyl)-10,15,20-triphenyl-21,23-dithiaporphyrin).

Data set [4] is described as follows: Relative rates of photooxidation of the linker in CMP-L-CA4 with ROS quenchers. It counts as physicochemical. The settings on record: 1.2 μmol each in CDCl3, 690 nm, 10 mW/cm^2. The procedure: The reaction mixture was irradiated by using diode laser (690 nm, 10 mW/cm^2). The oxidation of the olefin with SO was monitored every 5 min by the decrease of the olefinic peaks of the aminoacrylate in ^1H-NMR

For data set [5] the following is noted: literature (ref 88); cited from earlier work.
Data set [6] is described as follows: Photophysical properties of selected compounds in DMSO. It counts as physicochemical.
A short description of data set [7]: 1H-NMR of drugs and model linker compound with CMP-OMe before and after irradiation. Format: physicochemical. Particulars: 1H-NMR. The text has this:
The cleavage of aminoacrylate linkers after irradiation was supported by the increased coumarin fluorescence of 9 by irradiation (FIGS. 14-21). The unique peak of each compound was integrated against the peak of CMP-OMe (four protons of CMP-OMe at 9.7 ppm, FIG. 14), which was known to be inert to singlet oxygen oxidation. […] However, we observed 77% decrease of the proton peak of the aminoacrylate linker after the irradiation (FIG. 21). […] PD 9 had negligible coumarin emission compared to that of free coumarin at the equimolar concentration. In the presence of 10 μM of 9, MCF-7 cells were incubated for 24 h to activate dPS. Then, the samples were irradiated by visible light (540±10 nm, 8 mW/cm^2, 30 min). […] The released free coumarin was also detected and quantified by HPLC based on the standard curve of free coumarin. As such, almost 99% of 9 released coumarin while only 64% of dPS of 9 were activated when irradiated.

The target of another data set is T1, tubulin (Sus scrofa, UniProt P02554).
T1 construct: purchased Cytoskeleton, Inc. BK011P
T1 sequence (P02554 whole entry): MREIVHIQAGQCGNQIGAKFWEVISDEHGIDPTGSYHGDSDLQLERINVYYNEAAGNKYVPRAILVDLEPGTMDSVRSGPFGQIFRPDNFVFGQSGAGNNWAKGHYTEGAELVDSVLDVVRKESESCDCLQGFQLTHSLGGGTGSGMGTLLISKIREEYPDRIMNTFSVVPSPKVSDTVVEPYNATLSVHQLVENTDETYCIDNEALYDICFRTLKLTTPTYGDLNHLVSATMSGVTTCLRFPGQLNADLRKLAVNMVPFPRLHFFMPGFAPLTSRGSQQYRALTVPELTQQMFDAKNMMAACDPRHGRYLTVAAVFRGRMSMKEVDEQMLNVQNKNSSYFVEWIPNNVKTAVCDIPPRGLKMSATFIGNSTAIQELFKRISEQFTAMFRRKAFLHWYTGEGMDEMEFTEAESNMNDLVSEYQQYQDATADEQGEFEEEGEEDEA
T1 sequence (P02550 whole entry partner): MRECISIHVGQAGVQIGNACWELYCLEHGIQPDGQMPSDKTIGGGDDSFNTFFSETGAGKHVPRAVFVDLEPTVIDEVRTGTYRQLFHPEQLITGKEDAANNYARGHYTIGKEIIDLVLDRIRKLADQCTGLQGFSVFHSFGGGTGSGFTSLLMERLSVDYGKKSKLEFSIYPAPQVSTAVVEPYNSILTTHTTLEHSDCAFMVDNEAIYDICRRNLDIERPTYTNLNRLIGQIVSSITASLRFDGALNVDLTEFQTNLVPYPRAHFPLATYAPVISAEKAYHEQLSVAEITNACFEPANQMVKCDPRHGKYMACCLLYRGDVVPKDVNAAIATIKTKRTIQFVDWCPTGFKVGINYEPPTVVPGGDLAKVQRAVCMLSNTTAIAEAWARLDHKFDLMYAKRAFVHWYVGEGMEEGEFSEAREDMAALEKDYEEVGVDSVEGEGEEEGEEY
The data set is described as follows: Fluorescence-based tubulin polymerization assay. It counts as biochemical. Particulars: 3 μM. How it is done:
Paclitaxel and CA4 were used as positive control drugs (a polymerization enhancer and an inhibitor, respectively) in addition to the negative control group (FIG. 32).
The fluorescence-based tubulin polymerization was determined by using a kit supplied by Cytoskeleton, Inc. (cat #=BK011P). Its basic principle is that the fluorescence reporter increases as it is incorporated into microtubules during the course of polymerization. The assay was performed following the experimental procedure as described in version 2.1 of the tubulin polymerization assay kit manual. Briefly, the test drug (final concentration=3 μM) was added to a mixture of tubulin and GTP in a buffer solution, and the reaction mixture was incubated at 37° C. Fluorescence was monitored (excitation=360 nm and emission=450 nm) by using a fluorescence plate reader (SpectraMax Gemini EM, Molecular device). Paclitaxel and CA4 were included in the assay as positive controls in addition to the negative control (vehicle only).

Setting [8] is: 0 min, 690 nm diode laser, 200 mW/cm^2, CDCl3, no added photosensitizer for 14, 15, 16.

In the case of `C(=C/Sc1ccccc1)/Sc1ccccc1` [control, (Z)-1,2-Bis(phenylthio) ethene], the “Remaining olefins (%)” value in data set [1] (0 min, CMP-OMe, 690 nm, 200 mW/cm^2, CDCl3) amounted to 100%; in data set [1] (5 min), 38%; in data set [1] (10 min) it was 11%; in data set [1] (15 min) it was 0%. Further, the “Percentile of remaining compound” value in data set [2] (setting [8]) is reported as 100; in data set [2] (5 min), 70; in data set [2] (10 min), 59; in data set [2] (15 min), 41; in data set [2] (20 min), 23; in data set [2] (25 min), 13. Also, the “Decrease of olefinic proton peaks (photo-oxidation)” value in data set [2] (25 min of irradiation) amounted to 87%.
As to `O=C1C=CC(=O)C=C1` [1,4-benzoquinone], in data set [3], the “Effect of ROS quencher on oxidation of the aminoacrylate linker” value (from here on “Effect … of the aminoacrylate linker”) is “did not make any delay of the oxidation of the linker”. Also, the “Effect of ROS quencher on oxidation of aminoacrylate linker of CMP-L-CA4” value (shortened to “Effect of ROS quencher … of CMP-L-CA4”) in data set [4] is “did not have any effect on the oxidation of the aminoacrylate linker”.
Take `C1CN2CCN1CC2` [DABCO, 1,4-diazabicyclo[2.2.2]octane]: the “Effect … of the aminoacrylate linker” value in data set [3] is “effectively delayed the oxidation of the aminoacrylate linker”. Also, the “Effect of ROS quencher … of CMP-L-CA4” value in data set [4] is “dramatically delayed the oxidation of aminoacrylate”. Moreover, the “Singlet oxygen quenching rate constant k” value in data set [5] is 2.6e+08 M⁻¹ s⁻¹.
Consider `CC1=C(/C=C/C(C)=C/C=C/C(C)=C/C=C/C=C(C)/C=C/C=C(C)/C=C/C2=C(C)CCCC2(C)C)C(C)(C)CCC1` [β-carotene], for which, in data set [3], the “Effect … of the aminoacrylate linker” value is “effectively delayed the oxidation of the aminoacrylate linker”. Moreover, the “Effect of ROS quencher … of CMP-L-CA4” value in data set [4] is listed as “dramatically delayed the oxidation of aminoacrylate”. Moreover, the “Singlet oxygen quenching rate constant k” value in data set [5] is 1.2e+10 M⁻¹ s⁻¹.
As to `Cc1cc(=O)oc2cc(O)ccc12` [7-hydroxy-4-methyl-coumarin], in data set [6], the “Extinction Coefficient” value is 15800 M⁻¹ cm⁻¹; the “FQY (φ), fluorescence quantum yield” value was 0.14; the “emax (emission maximum)” value amounted to 378 nm; the “λmax (absorption maximum)” value was 325 nm. In addition, in data set [7], the “Oxidation under the irradiation condition” value is “not oxidized at all”.
On to `CC(=O)O[C@H]1C(=O)[C@@]2(C)[C@H]([C@H](OC(=O)c3ccccc3)[C@]3(O)C[C@H](OC(=O)[C@H](O)[C@@H](NC(=O)c4ccccc4)c4ccccc4)C(C)=C1C3(C)C)[C@]1(OC(C)=O)CO[C@@H]1C[C@@H]2O` [paclitaxel], for which, on tubulin, the “Pattern of kinetic trace of tubulin polymerization” value is reported as “enhancer”.
On to 5-(6) carboxy-fluorescein, for which, in data set [6], the “Extinction Coefficient” value came to 80000 M⁻¹ cm⁻¹; the “FQY (φ), fluorescence quantum yield” value turned out to be 0.90; the “emax (emission maximum)” value was found to be 525 nm; the “λmax (absorption maximum)” value was found to be 462 nm.
For “(E)-((13S)-13-Methyl-17-oxo-7,8,9,11,12,13,14,15,16,17-decahydro-6H cyclopenta[a] phenanthren-3-yl)3-(4-((2-phenoxy-10,15,20-triphenyl-21,23-dithiaporphyrinacetoxy)methyl) piperidin-1-yl)acrylate [Compound 16 (Example 3)]”, the results for the “Percentile of remaining compound” value in data set [2] (setting [8]), in data set [2] (5 min) and in data set [2] (10 min) were 100, 60 and 10, respectively. Besides, in data set [2] (GC-MS / SI), the “Release of parent molecule after irradiation” value is “successfully released Estrone”. Further, the Photo-oxidation in data set [2] (in 10 min) came out at 90%.
